Assay results published in patent US20250228864A1, “THERAPIES FOR THE TREATMENT OF INFLAMMATORY BOWEL DISEASE” (Gilead Sciences, Inc., priority 2023, published 2025).

Target: T1, α4β7 receptors on β7+CD4+CD45RO+ memory T cells (Homo sapiens, UniProt P13612+P26010)
T1 construct: endogenous in cells
T1 sequence (P13612 34-1032): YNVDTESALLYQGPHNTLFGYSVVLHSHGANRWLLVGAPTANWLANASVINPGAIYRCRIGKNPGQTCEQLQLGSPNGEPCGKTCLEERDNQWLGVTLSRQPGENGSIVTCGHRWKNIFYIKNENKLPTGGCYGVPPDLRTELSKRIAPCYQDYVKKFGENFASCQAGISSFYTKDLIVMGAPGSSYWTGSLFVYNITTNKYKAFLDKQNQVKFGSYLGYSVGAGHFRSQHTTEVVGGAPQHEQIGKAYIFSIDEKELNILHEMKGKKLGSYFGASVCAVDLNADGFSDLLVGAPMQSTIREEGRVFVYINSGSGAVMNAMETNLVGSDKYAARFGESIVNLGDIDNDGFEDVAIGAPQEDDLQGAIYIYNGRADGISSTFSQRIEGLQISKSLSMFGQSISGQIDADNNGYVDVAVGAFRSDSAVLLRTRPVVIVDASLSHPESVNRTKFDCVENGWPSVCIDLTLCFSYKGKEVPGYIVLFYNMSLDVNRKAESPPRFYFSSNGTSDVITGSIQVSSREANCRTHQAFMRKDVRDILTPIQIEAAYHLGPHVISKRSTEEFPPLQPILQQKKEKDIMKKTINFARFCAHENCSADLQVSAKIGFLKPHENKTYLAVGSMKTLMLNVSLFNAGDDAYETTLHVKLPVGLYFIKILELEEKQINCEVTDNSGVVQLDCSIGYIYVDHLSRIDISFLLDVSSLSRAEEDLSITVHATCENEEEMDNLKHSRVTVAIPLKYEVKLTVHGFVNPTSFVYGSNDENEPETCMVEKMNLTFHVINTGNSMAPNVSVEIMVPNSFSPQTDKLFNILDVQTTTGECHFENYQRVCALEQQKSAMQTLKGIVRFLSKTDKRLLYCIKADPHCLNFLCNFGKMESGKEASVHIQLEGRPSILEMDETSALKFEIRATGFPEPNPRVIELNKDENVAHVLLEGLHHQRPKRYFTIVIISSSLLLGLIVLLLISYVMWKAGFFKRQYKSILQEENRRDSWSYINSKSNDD
T1 sequence (P26010 20-798): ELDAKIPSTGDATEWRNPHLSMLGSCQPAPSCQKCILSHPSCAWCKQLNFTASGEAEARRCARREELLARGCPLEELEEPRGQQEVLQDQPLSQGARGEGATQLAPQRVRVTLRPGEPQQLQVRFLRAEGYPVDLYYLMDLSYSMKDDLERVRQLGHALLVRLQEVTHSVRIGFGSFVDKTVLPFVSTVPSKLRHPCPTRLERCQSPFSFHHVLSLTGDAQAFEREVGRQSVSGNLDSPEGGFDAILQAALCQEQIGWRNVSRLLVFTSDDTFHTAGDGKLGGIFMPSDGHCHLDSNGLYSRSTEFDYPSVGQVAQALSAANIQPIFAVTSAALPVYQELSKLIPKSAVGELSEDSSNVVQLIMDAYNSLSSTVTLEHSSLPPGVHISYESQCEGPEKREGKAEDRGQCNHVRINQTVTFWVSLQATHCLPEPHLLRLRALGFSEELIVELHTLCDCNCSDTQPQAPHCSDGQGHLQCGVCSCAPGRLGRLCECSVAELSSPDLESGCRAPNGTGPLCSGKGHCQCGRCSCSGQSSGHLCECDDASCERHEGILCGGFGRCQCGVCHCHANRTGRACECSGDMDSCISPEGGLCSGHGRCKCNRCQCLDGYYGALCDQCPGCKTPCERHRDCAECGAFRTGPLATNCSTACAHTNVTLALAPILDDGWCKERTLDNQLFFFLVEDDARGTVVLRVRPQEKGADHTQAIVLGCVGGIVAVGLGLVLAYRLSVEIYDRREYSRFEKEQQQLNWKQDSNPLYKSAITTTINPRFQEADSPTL
Assay: Whole blood α4β7 receptor occupancy (RO) assay by flow cytometry in SAD and MAD cohorts
Assay type: in vivo
Conditions: for time post last dose (Day 14) until which α4β7 % RO≥95% was sustained: 100% of participants
Protocol: Formula (III) is a prodrug of Formula (I) and undergoes a rapid conversion to its active metabolite (Formula (I)) when administered to a human. The pharmacodynamics (PD) of the active metabolite of Formula (III) were analyzed in healthy volunteers by measuring the metabolites receptor occupancy (RO) on α4β7 receptors in whole blood to inform Formula (III) dose selection and schedule.
A whole blood RO assay was developed and fit-for-purpose-validated that measures free α4β7 receptors on […] memory T cells in fresh whole blood by flow cytometry. The β7+CD4+CD45RO+ memory T-cells were identified using a staining panel comprised of fluorescently labelled anti-CD3, -CD4, -CD8, -CD45RO, and -β7 antibodies (Biolegend) (Table 14) as soon as possible after blood collection. Biotinylated human MAdCAM-1 protein, the natural ligand for α4β7, is mixed with streptavidin PE dextramer (Immudex) (MDX) and added to the whole blood in the presence of the divalent cation manganese (as MnCl2). MDX and the metabolite compete for binding to the α4β7 integrin receptor. Specimen data are acquired immediately on a BD LSRFortessa X-20 Cell Analyzer flow cytometer using a α4β7 RO cell acquisition template and application settings. The gating strategy is as follows: lymphocytes are gated based on size (FSC-A) and complexity (SSC-A). Doublets are removed using FSC-A/FSC-H. CD3+ lymphocytes are further differentiated into CD4+ and CD8+ T cells. CD4+CD45RO+ positive T cells are gated on β7 integrin and MDX positivity. The fluorescent intensities of PE-MDX β7+CD4+CD45RO+ memory T cells in pre-dose and post-dose whole blood are used to calculate the % RO post-dose. The lower level of quantification (LLOQ) of the assay was estimated to be ˜40% for a single measurement; similarly, the a4b7 RO assay was fit-for purpose validated to precisely quantify % RO up to 95% RO. Actual measured values <40% RO and ≥95% RO are shown but represent best estimates.
Whole blood was collected pre- and post-Formula (III) or placebo to match (PTM) administration and percent α4β7 RO was calculated for all postbaseline time points in the SAD and MAD cohorts of the study. α4β7% RO was evaluated in all participants in Part A (SAD, Formula (III) 20 mg, 60 mg, 200 mg, 500 mg, and 1000 mg administered in liquid filled capsules under fasting conditions), and in Part B (MAD, Formula (III) 20 mg, 80 mg, 200 mg, 500 mg in liquid filled capsules under non-fasting conditions and Formula (III) 200 mg in tablet formulation under fasting conditions). In total, 2,506 samples collected at 35 different time-points from 109 unique participants were analyzed for α4β7% RO.

time until which full target engagement could possibly be achieved (200 mg capsule nonfasting, after last dose): approximately 48 h
α4β7 % RO 72 h postdose, average (200 mg capsule nonfasting, after last dose Day 14): 90.1%
α4β7 % RO at 24 h post last dose on Day 14 (200 mg capsule nonfasting, all participants): ≥ 95%
time post last dose (Day 14) until which α4β7 % RO≥95% was sustained (200 mg tablet fasting): 72 h
time post last dose (Day 14) until which α4β7 % RO≥95% was sustained (500 mg capsule nonfasting): 96 h
α4β7 % RO (MAD 20 mg QD capsule nonfasting, Day 1, 3 h postdose): 99.8%
α4β7 % RO (MAD 20 mg QD capsule nonfasting, Day 1, 24 h postdose): 37.8%
α4β7 % RO (MAD 20 mg QD capsule nonfasting, Day 14, 24 h postdose): 69.3%
α4β7 % RO (MAD 20 mg QD capsule nonfasting, Day 14, predose): 70.8%
change of α4β7 % RO post multiple once daily doses (MAD 20 mg, Day 1 to Day 14): accumulation
α4β7 % RO (MAD 80 mg QD capsule nonfasting, Day 1, 3 h postdose): 99.9%
α4β7 % RO (MAD 80 mg QD capsule nonfasting, Day 1, 24 h postdose): 98.1%
α4β7 % RO (MAD 80 mg QD capsule nonfasting, Day 14, 24 h postdose): 99.4%
α4β7 % RO (MAD 80 mg QD capsule nonfasting, Day 14, predose): 99.3%
target engagement of α4β7 at 24 h on Day 1 (MAD 80 mg nonfasting): achieved full target engagement
α4β7 % RO (MAD 200 mg QD capsule nonfasting, Day 1, 24 h postdose): 99.8%
α4β7 % RO (MAD 200 mg QD capsule nonfasting, Day 14, 24 h postdose): 99.8%
α4β7 % RO (MAD 200 mg QD capsule nonfasting, Day 14, predose): 99.9%
α4β7 % RO (MAD 200 mg QD tablet fasting, Day 1, 3 h postdose): 99.9%
α4β7 % RO (MAD 200 mg QD tablet fasting, Day 1, 24 h postdose): 99.8%
α4β7 % RO (MAD 200 mg QD tablet fasting, Day 14, 24 h postdose): 99.9%
α4β7 % RO (MAD 200 mg QD tablet fasting, Day 14, predose): 100%
α4β7 % RO (MAD 500 mg QD capsule nonfasting, Day 1, 3 h postdose): 99.9%
α4β7 % RO (MAD 500 mg QD capsule nonfasting, Day 1, 24 h postdose): 99.9%
α4β7 % RO (MAD 500 mg QD capsule nonfasting, Day 14, 24 h postdose): 99.9%
α4β7 % RO (MAD 500 mg QD capsule nonfasting, Day 14, predose): 99.9%
α4β7 % RO 24 h post the last once daily dose on Day 14 (MAD all doses ≥80 mg, in 100% of participants): ≥ 95%
α4β7 % RO (SAD 20 mg liquid-filled capsule fasting, Day 1, 3 h postdose): 100%
α4β7 % RO (SAD 20 mg liquid-filled capsule fasting, Day 1, 24 h postdose): 35.9%
α4β7 % RO (SAD 60 mg liquid-filled capsule fasting, Day 1, 3 h postdose): 100%
α4β7 % RO (SAD 60 mg liquid-filled capsule fasting, Day 1, 24 h postdose): 63.4%
α4β7 % RO (SAD 200 mg liquid-filled capsule fasting, Day 1, 3 h postdose): 99.9%
α4β7 % RO (SAD 200 mg liquid-filled capsule fasting, Day 1, 24 h postdose): 99.7%
α4β7 % RO (SAD 500 mg liquid-filled capsule fasting, Day 1, 3 h postdose): 99.9%
α4β7 % RO (SAD 500 mg liquid-filled capsule fasting, Day 1, 24 h postdose): 99.8%
α4β7 % RO (SAD 1000 mg liquid-filled capsule fasting, Day 1, 3 h postdose): 99.6%
α4β7 % RO (SAD 1000 mg liquid-filled capsule fasting, Day 1, 24 h postdose): 99.8%
α4β7 % RO (full target engagement) (SAD fasting, 3 h postdose, all doses tested): ≥ 95%
subjects with full target engagement (% RO≥95) sustained 24 h postdose (SAD fasting, doses ≥200 mg): 100%
SMILES: CCOC(=O)[C@H](Cc1ccc(-n2c(=O)c3ccncc3n(C)c2=O)c2ncccc12)NC(=O)c1c(C)cc(N2CCOC[C@@H]2C(F)(F)F)cc1F (atropisomer, axis not shown) [Formula (III)]
